Results on nine molecules are retold here after ChEMBL document CHEMBL1201862, “PubChem BioAssay data set” (2004).

One assay addresses T1, Protein Tat (Human immunodeficiency virus type 1 group M subtype B (isolate HXB2)(HIV-1), UniProt P04608).
T1 sequence (P04608 whole entry): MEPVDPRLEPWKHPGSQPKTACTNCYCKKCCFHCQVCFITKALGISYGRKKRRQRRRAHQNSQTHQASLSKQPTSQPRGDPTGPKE
The format is functional.

The nature of assay [1]: inhibitors of firefly luciferase expression or activity, dose response, H4 neuroglioma cells, luminescence (AID 1990). The format is functional, cell-based.
Assay [2] is described as follows: Luminescence Cell-Based Dose Response HTS to Identify Inhibitors of 5'UTR Stem-Loop Driven Prion Protein mRNA Translation in H4 Neuroglioblastoma Cells. [Related pubchem assays: 1827 (Project Summary), 1813 (Primary HTS)]. The format is functional.
A short description of assay [3]: inhibitors of SNCA 5'UTR-driven reporter translation, confirmation, H4 neuroglioma cells, luminescence (AID 1988). Format: functional, cell-based.
Assay [4] can be described thus: cytotoxicity in HEK-293T cells, dose response, cytotoxicity control for BCR NF-kB inhibitor project, luminescence, B-cell screen hits (AID 489021).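 Further: HEK-293T cells carrying an NF-kB luciferase reporter; cells exposed to compound for about 14 hours before viability readout.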 The format is functional, cell-based.
The nature of assay [5]: M. tuberculosis H37Rv growth inhibitors, H37Rv strain (AID 1626). Format: functional.
Assay [6] is described as follows: THP-1 cell cytotoxicity, dose response, cytotoxicity control for non-replicating M. tuberculosis project (AID 489025). Format: functional.
The nature of assay [7]: cells. The format is functional.
In assay [8] the target is T2, Mannose-6-phosphate isomerase (Homo sapiens, UniProt P34949).
T2 sequence (P34949 whole entry): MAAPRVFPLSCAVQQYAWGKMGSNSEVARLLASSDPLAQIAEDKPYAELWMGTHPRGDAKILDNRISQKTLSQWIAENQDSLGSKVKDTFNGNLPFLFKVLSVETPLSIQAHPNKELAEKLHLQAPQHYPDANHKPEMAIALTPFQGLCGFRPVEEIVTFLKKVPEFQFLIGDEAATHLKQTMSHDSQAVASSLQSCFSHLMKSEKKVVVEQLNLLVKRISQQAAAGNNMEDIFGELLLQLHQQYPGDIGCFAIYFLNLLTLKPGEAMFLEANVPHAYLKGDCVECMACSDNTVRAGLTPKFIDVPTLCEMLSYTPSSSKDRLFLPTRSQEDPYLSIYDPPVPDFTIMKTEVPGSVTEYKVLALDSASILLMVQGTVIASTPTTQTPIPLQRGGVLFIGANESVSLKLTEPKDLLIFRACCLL
The assay can be described thus: human PMI inhibitors, high substrate, primary screen, biochemical, fluorescence intensity, high mannose 6-phosphate (AID 1220).

The nature of assay [9]: Dose-response inhibition of insulin secretion in a rat insulinoma line at 5 mM glucose (AID 1117331). The format is functional, cell-based. As to conditions: INS-1E.
A short description of assay [10]: cells. Format: functional, cell-based. As to conditions: INS-1E.
The next assay concerns the target T3, Cytochrome P450 1A2 (Homo sapiens, UniProt P05177).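 Further: PubChem cytochrome P450 panel assay, CYP1A2 panel member.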
T3 sequence (P05177 whole entry): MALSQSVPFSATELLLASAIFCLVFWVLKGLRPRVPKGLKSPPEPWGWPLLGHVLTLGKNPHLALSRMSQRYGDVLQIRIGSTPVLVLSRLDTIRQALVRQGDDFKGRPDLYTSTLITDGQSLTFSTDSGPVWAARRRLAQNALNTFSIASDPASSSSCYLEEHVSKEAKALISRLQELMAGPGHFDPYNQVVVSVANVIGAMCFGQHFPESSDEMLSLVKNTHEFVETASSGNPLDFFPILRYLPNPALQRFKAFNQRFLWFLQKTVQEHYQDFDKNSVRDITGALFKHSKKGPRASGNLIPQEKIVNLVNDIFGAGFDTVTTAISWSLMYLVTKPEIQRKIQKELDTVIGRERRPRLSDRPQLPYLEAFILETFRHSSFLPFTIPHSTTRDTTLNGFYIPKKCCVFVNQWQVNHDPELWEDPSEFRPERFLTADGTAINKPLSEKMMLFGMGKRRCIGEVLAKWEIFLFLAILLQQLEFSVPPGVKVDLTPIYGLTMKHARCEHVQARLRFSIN

The target in another assay is Paired box protein Pax-8 (Homo sapiens, UniProt Q06710). The assay can be described thus: inhibitors of PAX8-driven TPO luciferase reporter, dose response, RMG-I cells, cherry-pick (AID 687027).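 Further: luciferase reporter driven by Pax8 target thyroperoxidase promoter measured by SteadyGlo luminescence.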 The format is functional, cell-based.
Sequence of Paired box protein Pax-8 (Q06710 whole entry): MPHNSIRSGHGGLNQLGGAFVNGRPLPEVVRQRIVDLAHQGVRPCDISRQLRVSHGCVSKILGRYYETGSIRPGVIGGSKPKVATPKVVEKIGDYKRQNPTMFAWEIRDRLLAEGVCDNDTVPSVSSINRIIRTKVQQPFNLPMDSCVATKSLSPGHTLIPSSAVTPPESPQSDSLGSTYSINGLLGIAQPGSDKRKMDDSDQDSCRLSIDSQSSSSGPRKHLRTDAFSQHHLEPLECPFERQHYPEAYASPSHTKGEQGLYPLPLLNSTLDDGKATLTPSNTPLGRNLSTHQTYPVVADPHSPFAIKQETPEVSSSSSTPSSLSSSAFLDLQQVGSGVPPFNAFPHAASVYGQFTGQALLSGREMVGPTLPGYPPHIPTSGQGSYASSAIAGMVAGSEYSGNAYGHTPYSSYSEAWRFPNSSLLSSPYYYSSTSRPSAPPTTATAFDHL
A short description of assay [11]: IOSE-T80 ovarian epithelial cell cytotoxicity, dose response, cytotoxicity control for PAX8 inhibitor project, plate reader, dry powder samples (AID 743045). Format: functional, cell-based.
Assay [12] is described as follows: NIH:OVCAR-3 ovarian cancer cell cytotoxicity, dose response, PAX8 inhibitor project, plate reader, dry powder samples (AID 743044). Format: functional, cell-based.
Assay [13] is described as follows: IGROV1 ovarian cancer cell cytotoxicity, dose response, PAX8 inhibitor project, plate reader, dry powder samples (AID 743043). Format: functional, cell-based. The following applies: IGROV-1.
Assay [14] can be described thus: P. falciparum Dd2 growth inhibitors, dose response, SYBR Green, cherry-picked samples (AID 1159567). The format is functional, cell-based.
Assay [15] can be described thus: HepG2 cell cytotoxicity, dose response, cytotoxicity control, cherry-picked samples (AID 1159577). The format is functional, cell-based.
The nature of assay [16]: inhibitors of intracellular T. cruzi replication, confirmation, NIH3T3 host cells, beta-gal luminescence (AID 2044).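 Further: intracellular parasites grown in NIH/3T3 mouse fibroblasts as host cells; luminescent beta-galactosidase reporter signal from transgenic T. cruzi replicating inside host cells; inhibitors lower the luminescence signal.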 The format is functional, cell-based.
Assay [17] can be described thus: cytotoxicity toward NIH3T3 fibroblasts, dose response, counter-screen, cell-based, ATP luminescence, mouse fibroblasts (AID 2010).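 Further: cells exposed to compound for about 90 hours before reading.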 Format: functional.
A further assay concerns INS1. In words: beta cell apoptosis inhibitors, cytokine rescue, dose response, luminescence, retest (AID 449756).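 Further: cell death triggered by IL-1 beta plus TNF-alpha plus IFN-gamma mixture; protective hits raise ATP signal compared with cytokine alone wells.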 Format: functional, cell-based. As to conditions: Rattus norvegicus.
Another assay has as its target T4, Bcl-2-like protein 10 (Homo sapiens, UniProt Q9HD36).
T4 sequence (Q9HD36 whole entry): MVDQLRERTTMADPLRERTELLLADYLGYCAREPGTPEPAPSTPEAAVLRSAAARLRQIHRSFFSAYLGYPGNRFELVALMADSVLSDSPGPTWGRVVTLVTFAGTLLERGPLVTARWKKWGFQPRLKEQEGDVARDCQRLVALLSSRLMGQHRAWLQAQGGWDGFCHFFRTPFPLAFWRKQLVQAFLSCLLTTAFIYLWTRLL
In words: displacers of TR3 peptide from Bcl-B, primary screen, selectivity assay for Bfl-1 inhibitor project, biochemical, fluorescence polarization, FITC-TR3 peptide (AID 748).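 Further: fluorescence polarization from a fluorescein-labelled TR3 peptide binding purified Bcl-B.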 On the technique in general: Polarisation of emitted light reports the rotation of a fluorescent probe.

Assay [18] in a line: P. falciparum late gametocyte killing, dose response, luminescence (AID 1117278).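 Further: gametocytes exposed to compound for 24 hours.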 The format is functional, cell-based.
Assay [19] is described as follows: Jurkat T cell cytotoxicity, dose response, cytotoxicity control for P. falciparum gametocyte viability project, luminescence (AID 1117277).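 Further: potency reflects loss of cellular ATP meaning fewer viable cells.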 The format is functional, cell-based.

Structures are written as SMILES. The source made the active and inactive calls.

`CCC(=O)Nc1cc(C)c(NC(=O)C23CC4CC(CC(C4)C2)C3)cn1`: the IC50 (commonly the concentration needed to halve the response being measured) on Protein Tat is > 100 µM (active).

For the molecule `CCOC(=O)c1cc2c(=O)n3ccccc3nc2n(CC(C)C)/c1=N/C(=O)c1c(-c2c(F)cccc2Cl)noc1C`, the EC50 (in general, the concentration giving half of the maximal effect) in [1] is 14.1 µM (active); in assay [2] it was 15.8 µM (active); in assay [3], 42.8 µM (active). For the same molecule, the IC50 in assay [4] is > 80 µM (inactive).

With `COc1ccc(NC(=O)c2ccc(COCC(F)(F)C(F)F)cc2)cc1`, the values for the IC50 (in assay [5]; in the assay “cells [7]”) were > 100 µM (active) and 47.8 µM (active), respectively. In assay [6], the CC50 (commonly the concentration giving 50% cytotoxicity) is > 40 µM (active).

On to `C/C(=C\C(=O)c1cccnc1)Nc1ccc(C(=O)O)cc1`, for which the half-maximal inhibitory concentration (IC50) in [8] was > 50 µM (not active).

On to `CN(C)CCN(Cc1ccc(Cl)cc1)c1ccccn1` [CHLOROPYRAMINE], for which the IC50 in assay [9] is 6.14 µM (inactive); in “cells [10]” it was 16.8 µM (inactive). Further, on Cytochrome P450 1A2, the concentration at half-maximal activity (AC50) (commonly the concentration at which the activity in the assay is half-maximal) is 12.6 µM (inconclusive).

As for `O=C(Nc1ccc(F)cc1)N1CCCCN2[C@@H](CO)[C@@H](c3ccc(C#Cc4ccccc4)cc3)[C@@H]2C1`, the concentration at half-maximal activity (AC50) is 18.7 µM (active) on Paired box protein Pax-8; 55.1 µM (active) in assay [11]; 19.2 µM (active) in [12]; 21 µM (active) in [13]; 2.61 µM (active) in assay [14]; 7.97 µM (active) in assay [15].

For the molecule `N=c1c2c(n(Cc3cccc(Cl)c3)c3c1CCC3)CCCC2`, the EC50 in [16] was 0.167 µM (active); in [17] it was > 60 µM (inconclusive). The IC50 in [4] is > 80 µM (inactive). Also, the half-maximal activity concentration (AC50) in the assay on INS1 was 6.82 µM (active).

Regarding `COC(=O)c1[nH]c2cccc(OC)c2c1NC(=O)CCN1CCC(C(N)=O)CC1`, the IC50 at Bcl-2-like protein 10 is > 100 µM (inactive).

On to `CCCc1cc(O)nc(SCC(=O)N2CCN(S(=O)(=O)c3ccc4ccccc4c3)CC2)n1`, for which the IC50 in assay [18] was > 109 µM (inactive); in [19] it was > 83.3 µM (inactive).
